Measured values: patent US20200270309A1, “MALEIMIDE GROUP-MODIFIED ANGIOGENESIS INHIBITOR HM-1 AND USE THEREOF” (NANJING ANJI BIOLOGICAL TECHNOLOGY CO., LTD, priority 2017, published 2020)
Marks after values point to notes of the source that are not given here. Peptide text beside a SMILES is read from it. * marks the point of attachment. X65 = O=C1C=CC(=O)N1c1cccc(CCCCCCCCCCCCC(=O)*)c1; X55 = O=C1C=CC(=O)N1c1ccccc1CCCCCCCCC(=O)*; X71 = O=C1C=CC(=O)N1c1cccc(CCCCCC(=O)*)c1; X79 = O=C1C=CC(=O)N1c1cccc(CCC(=O)*)c1

Key:
[1] = system: retinal vascular endothelial nuclei; test: Neovascularization in a rat model of premature retinopathy; type: in vivo, rats; conditions: dose 0.05 μM in the vitreous chamber from day 7 of modeling for one week; counted on day 14; oxygen-induced neonatal rats
Outline: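 Newborn rats kept 7 d in chamber alternating 80% and 10% O2 every 24 h (23 °C), then room air. Intravitreal injection of test agents on day 7, saline for model and control; eyes taken day 14, HE-stained 4 μm sections. Endothelial nuclei breaching retinal inner limiting membrane counted, averaged per section per eye (10 sections).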

[2] = system: retinal neovascularization (OIR model); test: Retinal vessels in OIR mice; type: in vivo, C57/B16 mice; conditions: for Area of neovascular plexus (mm^2): dose 0.05 μM in the vitreous chamber on day 13, retinal vessels evaluated on day 17; for Inhibition rate (%): dose 0.05 μM in the vitreous chamber on day 13, retinal vessels evaluated on day 17, vs negative control
Outline: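 C57/B16 pups were held in 75% oxygen from postnatal day 7 to 12, then returned to room air. On day 13 they received intravitreal saline or compound. On day 17 perfused vessels were labelled by Texas red tomato agglutinin injected into the left ventricle (5 min circulation) and retinal vasculature assessed.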

[3] = system: collagen-induced arthritis; test: Mouse collagen-induced arthritis (CIA) animal model; type: in vivo; conditions: DBA/1 mice CIA model, dose 4.0 mg/kg, subcutaneous from day 30, n=10; for Clinical score: highest score 16
[4] = system: HUVECs; test: Transwell migration inhibition on HUVECs; type: cell-based, human; conditions: for Inhibition rate (%): HUVEC migration vs blank control; for Cell migration number (Mean ± SD): HUVECs, transwell, 24 h
[5] = system: xylene-induced ear swelling; test: Xylene-induced mouse ear swelling; type: in vivo; conditions: Kunming mice, injected once a day for 5 days; for Swelling degree / Swelling degree (mg): right minus left ear piece weight 2 h after xylene; for Inhibition rate (%): xylene-induced ear swelling
Outline: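 Kunming mice dosed by injection once daily for 5 days; 1 h after last dose, 0.05 mL xylene applied to right ear, left ear untreated. Mice killed 2 h later; punched ear pieces weighed. Swelling degree = right minus left ear weight; swelling rate = swelling degree/left ear weight ×100%.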

[6] = system: IL-1β production by mouse peritoneal macrophages; test: IL-1β production by mouse peritoneal macrophages (ELISA); type: cell-based; conditions: for Inhibition rate: IL-1β production, vs model group; for IL-1β: mouse peritoneal macrophages, 48 h, ELISA
Outline: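 Starch-elicited (6%, i.p.) mouse peritoneal macrophages, 2×10^6 cells/mL in RPMI 1640, adhered 3 h; non-adherent cells washed off. Polypeptides added at low, medium and high concentrations, Dex as positive control; cultured 48 h, supernatant IL-1β measured.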

[7] = Half-lives and pharmacokinetic parameters of polypeptides vs HM-1; conditions: in vivo; for half-life: T1/2β (half-life)

Row | SMILES | Nuclei count (retinal vascular endothelial nuclei, average per section per eyeball) [1] | Area of neovascular plexus (mm^2) [2] | Inhibition rate (%) [2] | Joint swelling degree (mm) [3] | Left and right paw swelling degree (mm) [3] | Clinical score [3] | Inhibition rate (%) ([4]; dose 0.05 μM) | Inhibition rate (%) ([4]; dose 0.1 μM) | Inhibition rate (%) ([4]; dose 0.2 μM) | Cell migration number (Mean ± SD) ([4]; dose 0.05 μM) | Cell migration number (Mean ± SD) ([4]; dose 0.1 μM) | Cell migration number (Mean ± SD) ([4]; dose 0.2 μM) | Swelling degree ([5]; dose 2 mg/kg) | Inhibition rate (%) ([5]; dose 2 mg/kg) | Inhibition rate (%) ([5]; dose 4 mg/kg) | Swelling degree (mg) ([5]; dose 8 mg/kg) | Inhibition rate (%) ([5]; dose 8 mg/kg) | Inhibition rate ([6]; dose 0.05 μM) | IL-1β ([6]; dose 0.05 μM) | Inhibition rate ([6]; dose 0.1 μM) | other results
1 | C[C@H](NC(=O)CNC(=O)[C@H](CCCNC(=N)N)NC(=O)CCCCCCCCc1ccccc1N1C(=O)C=CC1=O)C(=O)N[C@@H](CC(=O)O)C(=O)N[C@@H](CCCNC(=N)N)C(=O)N[C@@H](C)C(=O)NCC(=O)NCC(=O)NCC(=O)NCC(=O)N[C@@H](CCCNC(=N)N)C(=O)NCC(=O)N[C@@H](CC(=O)O)C(=O)O [X20] (X55-RGADRAGGGGRGD-OH) | 9.374 ± 3.742 | 0.118 ± 0.014 mm^2 | 44.34%* | 0.82 ± 0.17 mm | 0.74 ± 0.14 mm | 9.07 ± 1.33 | 47.45% | 49.79% | 52.70% | 563.29 ± 41.22 | 538.18 ± 64.13 | 506.96 ± 57.65 | 5.72 ± 0.01 mg | 8.19% | 39.33% | 3.47 ± 0.07** mg | 44.30% | 17.90% | 772.72 ± 18.78 pg/mL | 23.02% | Swelling degree (mg) ([5]; dose 4 mg/kg): 3.78 ± 0.88** mg; IL-1β ([6]; dose 0.1 μM): 724.50 ± 12.58 pg/mL; Inhibition rate ([6]; dose 0.2 μM): 32.89%; IL-1β ([6]; dose 0.2 μM): 631.59 ± 19.52 pg/mL; AUC(0-inf) [7]: 31800 ± 8320 ng·h/mL; MRT inf [7]: 57.1 ± 12.9 h; clearance [7]: 0.523 mL/min/kg; half-life [7]: 39.56 ± 0.28 h
2 | C[C@H](NC(=O)CNC(=O)[C@H](CCCNC(=N)N)NC(=O)CCc1cccc(N2C(=O)C=CC2=O)c1)C(=O)N[C@@H](CC(=O)O)C(=O)N[C@@H](CCCNC(=N)N)C(=O)N[C@@H](C)C(=O)NCC(=O)NCC(=O)NCC(=O)NCC(=O)N[C@@H](CCCNC(=N)N)C(=O)NCC(=O)N[C@@H](CC(=O)O)C(=O)O [X26] (X79-RGADRAGGGGRGD-OH) | 8.343 ± 2.131 | 0.104 ± 0.001 mm^2 | 50.94%** | 0.71 ± 0.14 mm | 0.84 ± 0.12 mm | 9.07 ± 1.32 | 46.81% | 48.98% | 53.86% | 570.08 ± 49.26 | 546.86 ± 60.43 | 494.57 ± 48.88 | 5.88 ± 0.72 mg | 5.62% | 7.22% | 4.54 ± 0.61** mg | 49.76% | 18.26% | 769.33 ± 19.82 pg/mL | 21.99% | Swelling degree ([5]; dose 4 mg/kg): 5.78 ± 0.62 mg; IL-1β ([6]; dose 0.1 μM): 734.20 ± 13.89 pg/mL; Inhibition rate ([6]; dose 0.2 μM): 29.51%; IL-1β ([6]; dose 0.2 μM): 663.38 ± 11.96 pg/mL; AUC(0-inf) [7]: 34600 ± 8340 ng·h/mL; MRT inf [7]: 62 ± 9.63 h; clearance [7]: 0.482 mL/min/kg; half-life [7]: 42.95 ± 0.36 h
3 | C[C@H](NC(=O)CNC(=O)[C@H](CCCNC(=N)N)NC(=O)CCCCCc1cccc(N2C(=O)C=CC2=O)c1)C(=O)N[C@@H](CC(=O)O)C(=O)N[C@@H](CCCNC(=N)N)C(=O)N[C@@H](C)C(=O)NCC(=O)NCC(=O)NCC(=O)NCC(=O)N[C@@H](CCCNC(=N)N)C(=O)NCC(=O)N[C@@H](CC(=O)O)C(=O)O [X29] (X71-RGADRAGGGGRGD-OH) | 9.533 ± 2.225 | 0.109 ± 0.012 mm^2 | 48.58%* | 0.81 ± 0.15 mm | 0.71 ± 0.13 mm | 8.98 ± 1.44 | 46.37% | 50.43% | 53.84% | 574.88 ± 55.42 | 531.34 ± 47.59 | 494.73 ± 56.78 | 5.43 ± 0.91 mg | 12.84% | 20.39% | 3.86 ± 0.45** mg | 38.04% | 16.20% | 788.74 ± 15.39 pg/mL | 21.75% | Swelling degree (mg) ([5]; dose 4 mg/kg): 4.96 ± 0.1* mg; IL-1β ([6]; dose 0.1 μM): 736.46 ± 14.72 pg/mL; Inhibition rate ([6]; dose 0.2 μM): 40.73%; IL-1β ([6]; dose 0.2 μM): 557.81 ± 12.11 pg/mL; AUC(0-inf) [7]: 32200 ± 8030 ng·h/mL; MRT inf [7]: 57.6 ± 10.6 h; clearance [7]: 0.518 mL/min/kg; half-life [7]: 39.91 ± 0.25 h
4 | C[C@H](NC(=O)CNC(=O)[C@H](CCCNC(=N)N)NC(=O)CCCCCCCCCCCCc1cccc(N2C(=O)C=CC2=O)c1)C(=O)N[C@@H](CC(=O)O)C(=O)N[C@@H](CCCNC(=N)N)C(=O)N[C@@H](C)C(=O)NCC(=O)NCC(=O)NCC(=O)NCC(=O)N[C@@H](CCCNC(=N)N)C(=O)NCC(=O)N[C@@H](CC(=O)O)C(=O)O [X36] (X65-RGADRAGGGGRGD-OH) | 8.726 ± 3.273 | 0.084 ± 0.009 mm^2 | 60.38%** | 0.74 ± 0.14 mm | 0.77 ± 0.13 mm | 8.86 ± 1.23 | 52.07% | 56.76% | 57.92% | 513.79 ± 55.46 | 463.47 ± 50.27 | 451.01 ± 43.85 | 5.37 ± 0.84 mg | 13.80% | 13.80% | 4.7 ± 0.97* mg | 24.56% | 17.18% | 779.49 ± 11.56 pg/mL | 34.09% | Swelling degree ([5]; dose 4 mg/kg): 5.37 ± 0.21 mg; IL-1β ([6]; dose 0.1 μM): 620.34 ± 15.26 pg/mL; Inhibition rate ([6]; dose 0.2 μM): 34.16%; IL-1β ([6]; dose 0.2 μM): 619.62 ± 11.89 pg/mL; AUC(0-inf) [7]: 28200 ± 8090 ng·h/mL; MRT inf [7]: 50.4 ± 10.1 h; clearance [7]: 0.592 mL/min/kg; half-life [7]: 34.9 ± 0.27 h
